Legend:
[1] = Acute toxicity, fed orally for two weeks; assay type: in vivo; conditions: Fisetin 50 mg/kg, 3c 25 and 50 mg/kg body weight
Protocol: Fisetin analogue 3c was used to assess the potential toxicity of these analogues in a pre-clinical model. To test the acute toxicity, Fisetin (50 mg/kg body weight), analogue 3c (25 mg/kg and 50 mg/kg body weight), and vehicle control (5% DMSO, 45% PEG-300 and 50% saline) was fed orally for two weeks. Abnormal clinical signs such as decreased motor activity, sensory reflection, body weight, food intake, and water intake were monitored during the treatment period. An increase in body weight was observed among all groups throughout the treatment period (FIG. 7A). […] This variation could be due to consistent frequency of dosage.

[2] = system: lipid peroxidation (MDA formation); test: Hepatotoxicity: lipid peroxidation assay on microsomal liver fraction (TBARS); assay type: in vivo, swiss albino mice; conditions: microsomal liver fraction of treated mice
Protocol: (§1) Hepatotoxicity is considered to be one of the major challenges for drug development schemes. The liver is the primary organ for the metabolism or biotransformation of a given drug. To assess the hepatotoxicity of these compounds, the effects of Fisetin and analogue 3c on various hepatic enzymes was assessed.
(§2) A lipid peroxidation assay was performed on microsomal liver fraction and determined in terms of TBARS formation. […] The modulatory effects of Fisetin and analogue 3c were determined on the specific activities of cytochrome b5 reductase (Cytb5R) and cytochrome P450 reductase (CytP450R), phase I enzyme of xenobiotic metabolism. Fisetin and analogue 3c caused reduction in the specific activity of cytochrome b5 reductase. Fisetin decreased Cytb5R specific activity by 66% whereas analogue 3c (50 mg/kg) caused a 36% reduction in specific activity (FIG. 7F). An increase in specific activity of CytP450R by Fisetin and analogue 3c was observed. Fisetin and analogue 3c (50 mg/kg) increased the specific activity by 15% and 13%, respectively (FIG. 7G). Next, the specific activities of phase II enzymes, glutathione S-transferase (GST) and reduced glutathione (GSH) were measured. […] Fisetin and analogue 3c (50 mg/kg) caused a decrease in specific activity of GSH by 34% and 7%, respectively (FIG. 7I). […] These analogues are therefore likely to be effective and safe phytochemicals.

[3] = system: SOD; test: Hepatotoxicity: specific activity of SOD; assay type: in vivo, swiss albino mice; conditions: liver of treated mice
Protocol: as §1, §2

[4] = system: cytochrome b5 reductase (Cytb5R); test: Hepatotoxicity: specific activity of cytochrome b5 reductase; assay type: in vivo, swiss albino mice; conditions: 50 mg/kg orally, two weeks
Protocol: as §1, §2

[5] = system: cytochrome P450 reductase (CytP450R); test: Hepatotoxicity: specific activity of cytochrome P450 reductase; assay type: in vivo, swiss albino mice; conditions: 50 mg/kg orally, two weeks
Protocol: as §1, §2

[6] = system: glutathione S-transferase (GST); test: Hepatotoxicity: specific activity of glutathione S-transferase; assay type: in vivo, swiss albino mice; conditions: liver of treated mice
Protocol: as §1, §2

[7] = system: reduced glutathione (GSH); test: Hepatotoxicity: reduced glutathione; assay type: in vivo, swiss albino mice; conditions: 50 mg/kg orally, two weeks
Protocol: as §1, §2

[8] = system: B(a)P-induced lung carcinogenesis; test: B(a)P-induced lung carcinogenesis, Initiation and Promotion Protocols; assay type: in vivo, Swiss albino mice
Excerpt: To assess whether Fisetin and its 4-bromo-Fisetin analogue (Fisetin analogue 3c) have anticarcinogenesis activity and if any toxicity in terms of water and food consumption, and body weight, Benzo[a]pyrene [B(a)P] induced lung carcinogenesis in Swiss albino mice were employed in the study. Along with the antitumor activity of the agents, the body weight, food and water intake in different treatment groups were monitored on regular intervals and analysed.
There were six different treatment groups in the study including, (1) control, (2) B(a)P, (3) Fisetin+B(a)P, (4) Fisetin analogue 3c+B(a)P, (5) B(a)P+Fisetin and (6) B(a)P+Fisetin analogue 3c.
Groups 3 and 4 represent the Initiation Protocol (agents treatment started 1 week before carcinogen treatment and continued 1 week after the last dose of the carcinogen). Groups 5 and 6 represent the Promotion Protocol (agents treatment started after 3 weeks of the carcinogen treatment). The B(a)P was given orally twice a week for 4 weeks at 50 mg/kg body weight dose, whereas Fisetin and Fisetin analogue (3c) were administered orally at 25 mg/kg body weight thrice weekly (see FIG. 9).

[9] = cited from earlier work
[10] = system: a range of cancer cell lines; conditions: reported in the literature; cited from earlier work
[11] = system: 22rv1 prostate carcinoma cells; conditions: retained on methylation of the 3-hydroxy group; cited from earlier work

Q: For O=c1c(O)c(-c2ccc(O)c(O)c2)oc2cc(O)ccc12 [Fisetin], which “toxicity in mice, in words” value [1] is on record?
A: did not cause toxicity

Q: What about the “MDA formation (TBARS)” value [2] of the same molecule?
A: No significant change

Q: What about the “specific activity of SOD” value [3] of the same molecule?
A: moderately induced

Q: And the “reduction in specific activity of cytochrome b5 reductase” value [4]?
A: 66%

Q: And the “increase in specific activity of CytP450R” value [5]?
A: 15%

Q: And the “specific activities of GST compared to the control group” value [6]?
A: did not cause significant change

Q: What about the “decrease in specific activity of GSH” value [7] of the same molecule?
A: 34%

Q: And the “systemic toxicity during long-term application” value ([8]; 25 mg/kg orally thrice weekly)?
A: did not show any systemic toxicity

Q: And the “tumorigenic features in lung histology (nucleus size, cytoplasmic content, alveoli)” value ([8]; 25 mg/kg orally thrice weekly)?
A: reversal of the tumorigenic features

Q: What about the “tumor incidence, histopathology of H&E stained serial sections” value ([8]; compared to the carcinogen treated group) of the same molecule?
A: less

Q: What about the “area or size of tumor lesions, in words” value ([8]; tumor initiation phase / initiation protocol) of the same molecule?
A: not effective as compared to the analogue

Q: And the “tumor lesions per mouse and total number of lesions per group, in words” value ([8]; versus B(a)P group)?
A: strongly reduced

Q: What about the “pKa of the 4′-hydroxyl group” value [9] of the same molecule?
A: ~ 9.4

Q: What about the “pKa of the 7-hydroxyl group” value ([9]; most acidic position) of the same molecule?
A: ~ 7.3

Q: Which “activity against cancer cell lines compared to apigenin” value [10] does the source give for O=C1C[C@@H](c2ccc(O)cc2)Oc2cc(O)cc(O)c21 [navingenin] here?
A: inactive

Q: Which “activity against 22rv1 prostate carcinoma cells” value [11] does the source give for COc1cc(-c2oc3ccccc3c(=O)c2O)cc(OC)c1OC [TMFol] here?
A: low micromolar activity
